Measurements from patent US4731109A, “Herbicidal 2-haloacetanilides” (Monsanto Company, priority 1982, dated 1988).

Tests used:
soybeans = assay: Herbicidal effect in a variety of soil types; format: in vivo
wild proso millet = assay: Greenhouse pre-emergence GR15/GR85 selectivity test; format: in vivo, wild proso millet (panicum milicaeum)
From the text: (§1) A good grade of top soil is placed in aluminum pans and compacted to a depth of three-eighths to one-half inch from the top of the pan. On the top of the soil is placed a number of seeds or vegetative propagules of various plant species. The soil required to level fill the pans after seeding or adding vegetative propagules is weighed into a pan. The soil and a known amount of the active ingredient applied in a solvent or as a wettable powder suspension are thoroughly mixed, and used to cover the prepared pans. […] As an alternative procedure, the overhead irrigation may be omitted. Observations are made about 2-3 weeks after seeding and treatment.
(§2) A further guide to the effectiveness of a chemical as a selective herbicide is the "selectivity factor" ("SF") for a herbicide in given crops and weeds. The selectivity factor is a measure of the relative degree of crop safety and weed injury and is expressed in terms of the GR15 /GR85 ratio, i.e., the GR15 rate for the crop divided by the GR85 rate for the weed, both rates in kg/ha (lb/A). In the tables below, selectivity factors are shown in parenthesis following the GR85 rate for each weed; the symbol "NS" indicates "non-selective". Marginal or undetermined selectivity is indicated by a dash (--).
(§3) Unless otherwise noted; greenhouse tests in Table VI and in other tables below involved herbicide treatments by soil incorporation and an initial overhead irrigation followed by subirrigation as described above.

Quackgrass [1] = assay: as above; format: in vivo
From the text: as §1, §2
(§4) These weeds are commonly associated with such major crops as corn and soybeans. […] The test procedure was the same as described for Tables II and III but modified by the application of an initial overhead irrigation equivalent to 1/4" (0.64 cm) rainfall; subsequent watering was accomplished by subirrigation. "NS" means non-selective within the test limits.
as §3

Yellow Nutsedge = assay: as above; format: in vivo
From the text: as §1, §2, §4, §3

rape = assay: as above; format: in vivo
From the text: (§5) A good grade of top soil is placed in aluminum pans and compacted to a depth of three-eighths to one-half inch from the top of the pan. On the top of the soil is placed a number of seeds or vegetative propagules of various plant species. The soil required to level fill the pans after seeding or adding vegetative propagules is weighed into a pan. The soil and a known amount of the active ingredient applied in a solvent or as a wettable powder suspension are thoroughly mixed, and used to cover the prepared pans. After treatment, the pans are given an initial overhead irrigation of eater, equivalent to one-fourth inch (0.64 cm) rainfall, then watered by subirrigation as need to give adequate moisture for germination and growth. As an alternative procedure, the overhead irrigation may be omitted. Observations are made about 2-3 weeks after seeding and treatment.
(§6) In the discussion and tables of data below, reference is made to herbicide application rates symbolized as "GR15 " and "GR85 "; these rates are given in kilograms per hectare (kg/ha) which are convertible into pounds per acre (lbs/A) by dividing the kg/ha rate by 1.12.
as §2
(§7) Additionally, pre-emergence herbicidal data from other tests have established that compounds according to this invention also selectively suppress quackgrass, yellow nutsedge and/or other weeds in one or more of the crops cotton, peanuts, bush beans and/or rape. For example, in Table VI are presented data showing the herbicidal selectivity of the compounds of Examples 1 and 2 against quackgrass in rape and snap beans. Unless otherwise noted; greenhouse tests in Table VI and in other tables below involved herbicide treatments by soil incorporation and an initial overhead irrigation followed by subirrigation as described above.
(§8) In another greenhouse test, the compounds of Examples 3-5, 9 and 10 were tested for their herbicidal efficacy against a variety of resistant annual and perennial weeds in rape.

red rice = assay: as above; format: in vivo
From the text: as §1, §2, §3

corn = assay: as above; format: in vivo
From the text: as §5, §6, §2
In Table IV pre-emergence herbicidal activity data are presented comparing the relative efficacy of the invention compounds and said prior art compounds as selective herbicides against the resistant and troublesome perennial weeds quackgrass and yellow nutsedge in soybeans and corn, respectively. These weeds are commonly associated with such major crops as corn and soybeans. The test data in Table IV were obtained under identical procedural conditions and represent two replicate runs (except for the compound of Example 9 which was present in one comparative test). The test procedure was the same as described for Tables II and III but modified by the application of an initial overhead irrigation equivalent to 1/4" (0.64 cm) rainfall; subsequent watering was accomplished by subirrigation. "NS" means non-selective within the test limits.
as §7

Quackgrass [2] = assay: Herbicidal effect in a variety of soil types; format: in vivo; details: for selectivity factor (GR15/GR85): in soybeans
From the text: The herbicide treatments were by soil incorporation with seeds planted 0.375 in (0.95 cm) deep, with 0.25 in (0.64 cm overhead irrigation. Observations were made about three weeks after treatment. Selectivity factors are shown in parenthesis.

purple nutsedge = assay: Greenhouse pre-emergence GR15/GR85 selectivity test; format: in vivo; details: Table XV; for selectivity factor (GR15/GR85): in rape
From the text: as §5, §6, §2, §7
In other greenhouse tests, compounds according to this invention have shown selective control of a variety of annual and perennial weeds in various crops. As further illustrative, the compound of Example 1 selectively controlled purple nutsedge in both corn nd soybeans, the respective crop/weed GR15 /GR85 ratios (expressed in kg/ha) being 0.67/0.25 (S.F.=2.7) in corn and 1.1/0.25 (S.F.=4.5) in soybeans. The compound of Example 8 has shown selective control of yellow nutsedge and quackgrass in corn and soybeans. The respective crop/yellownutsedge GR15 /GR85 ratios being >2.2/0.95 (S.F.=2.5) in corn; 2.2/0.5 (SF=4.5) in soybeans and the respective GR15 /GR85 ratios for both corn and soybeans in quackgrass being >2.2/0.5 (S.F.=4.5). In a test against yellow nutsedge in cotton, the GR15 /GR85 ratio (average of two replicates) was 2.0/0.95 (S.F.=2).
as §8

[3] = Drummer silty clay, Table XVII A
[4] = Drummer silty clay, Table XVII B
[5] = Wabash silty clay, Table XVII B

Structure (SMILES): CC(C)OCN(C(=O)CCl)c1ccccc1C(F)(F)F [Example 2, N--(isopropoxymethyl)-2'-trifluoromethyl-2-chloroacetanilide]
- GR15 (soybeans; [3]): > 2.2 Kg/Ha
- GR15 (soybeans; Florida muck, Table XVII A): > 2.2 Kg/Ha
- GR15 (soybeans; Florida sand, Table XVII A): 1.7 Kg/Ha
- GR15 (soybeans; Ray silt loam, Table XVII A): 2.2 Kg/Ha
- GR15 (soybeans; Sarpy silty clay, Table XVII A): > 2.2 Kg/Ha
- GR85 Rate (wild proso millet; Table XIV): 1.1 Kg/Ha
- selectivity factor (GR15/GR85) (wild proso millet; in soybeans, Table XIV): > 1.0
- GR85 (Quackgrass [1]; Table IV, Replicate #1): 0.26 Kg/Ha
- GR85 (Quackgrass [1]; Table IV, Replicate #2): 0.22 Kg/Ha
- GR85 Rate (Quackgrass [1]; Table VI): 0.28 Kg/Ha
- selectivity factor (GR15/GR85) (Quackgrass [1]; quackgrass in corn, Table IV, Replicate #1): 12
- selectivity factor (GR15/GR85) (Quackgrass [1]; quackgrass in corn, Table IV, Replicate #2): 3.5
- selectivity factor (GR15/GR85) (Quackgrass [1]; quackgrass in rape, Table VI): 7
- selectivity factor (GR15/GR85) (Quackgrass [1]; quackgrass in snapbeans, Table VI): 8
- selectivity factor (GR15/GR85) (Quackgrass [1]; quackgrass in soybeans, Table IV, Replicate #1): 6.5
- selectivity factor (GR15/GR85) (Quackgrass [1]; quackgrass in soybeans, Table IV, Replicate #2): 7.5
- GR85 (Yellow Nutsedge; Table IV, Replicate #1): 0.17 Kg/Ha
- GR85 (Yellow Nutsedge; Table IV, Replicate #2): 0.20 Kg/Ha
- selectivity factor (GR15/GR85) (Yellow Nutsedge; yellow nutsedge in corn, Table IV, Replicate #1): 18
- selectivity factor (GR15/GR85) (Yellow Nutsedge; yellow nutsedge in corn, Table IV, Replicate #2): 4
- selectivity factor (GR15/GR85) (Yellow Nutsedge; yellow nutsedge in soybeans, Table IV, Replicate #1): 10
- selectivity factor (GR15/GR85) (Yellow Nutsedge; yellow nutsedge in soybeans, Table IV, Replicate #2): 8.5
- GR15 Rate (rape; Table VI): 1.9 Kg/Ha
- GR85 Rate (red rice; Table XIV): 0.14 Kg/Ha
- selectivity factor (GR15/GR85) (red rice; in soybeans, Table XIV): > 8.0
- GR15 (corn; Table IV, Replicate #1): 3.1 Kg/Ha
- GR15 (corn; Table IV, Replicate #2): 0.78 Kg/Ha
- GR85 (Quackgrass [2]; [3]): 0.56 Kg/Ha
- GR85 (Quackgrass [2]; Florida muck, Table XVII A): 0.95 Kg/Ha
- GR85 (Quackgrass [2]; Florida sand, Table XVII A): 0.22 Kg/Ha
- GR85 (Quackgrass [2]; Ray silt loam, Table XVII A): 0.28 Kg/Ha
- GR85 (Quackgrass [2]; Sarpy silty clay, Table XVII A): 0.43 Kg/Ha
- GR85 (Quackgrass [2]; Wabash silty clay, Table XVII A): 0.34 Kg/Ha
- selectivity factor (GR15/GR85) (Quackgrass [2]; [3]): > 4
- selectivity factor (GR15/GR85) (Quackgrass [2]; Florida muck, Table XVII A): > 2
- selectivity factor (GR15/GR85) (Quackgrass [2]; Florida sand, Table XVII A): 7.5
- selectivity factor (GR15/GR85) (Quackgrass [2]; Ray silt loam, Table XVII A): 8
- selectivity factor (GR15/GR85) (Quackgrass [2]; Sarpy silty clay, Table XVII A): > 5

Structure (SMILES): Cc1cccc(C(F)(F)F)c1N(COCC(C)C)C(=O)CCl [Example 5, N--(isobutoxymethyl)-2'-trifluoromethyl-6'-methyl-2-chloroacetanilide]
- GR85 Rate (purple nutsedge): 0.23 Kg/Ha
- selectivity factor (GR15/GR85) (purple nutsedge): > 4.9
- GR15 (soybeans; [4]): 2.2 Kg/Ha
- GR15 (soybeans; Florida muck, Table XVII B): > 2.0 Kg/Ha
- GR15 (soybeans; Florida sand, Table XVII B): 3.0 Kg/Ha
- GR15 (soybeans; Ray silt loam, Table XVII B): 2.0 Kg/Ha
- GR15 (soybeans; Sarpy silty clay, Table XVII B): 3.0 Kg/Ha
- GR15 (soybeans; [5]): 2.2 Kg/Ha
- GR85 Rate (wild proso millet; Table XVI): 0.56 Kg/Ha
- selectivity factor (GR15/GR85) (wild proso millet; in lima beans, Table XVI): > 2
- selectivity factor (GR15/GR85) (wild proso millet; in peanuts, Table XVI): 1
- GR15 Rate (rape; Table XV): > 1.12 Kg/Ha
- GR85 Rate (red rice; Table XVI): 0.53 Kg/Ha
- selectivity factor (GR15/GR85) (red rice; in lima beans, Table XVI): > 2.1
- selectivity factor (GR15/GR85) (red rice; in peanuts, Table XVI): 1.1
- GR85 (Quackgrass [2]; [4]): 1.1 Kg/Ha
- GR85 (Quackgrass [2]; Florida muck, Table XVII B): 3.0 Kg/Ha
- GR85 (Quackgrass [2]; Florida sand, Table XVII B): 1.1 Kg/Ha
- GR85 (Quackgrass [2]; Ray silt loam, Table XVII B): > 2.2 Kg/Ha
- GR85 (Quackgrass [2]; Sarpy silty clay, Table XVII B): 1.6 Kg/Ha
- GR85 (Quackgrass [2]; [5]): 1.6 Kg/Ha
- selectivity factor (GR15/GR85) (Quackgrass [2]; [4]): 2
- selectivity factor (GR15/GR85) (Quackgrass [2]; Florida sand, Table XVII B): 3
- selectivity factor (GR15/GR85) (Quackgrass [2]; Ray silt loam, Table XVII B): NS (non-selective)
- selectivity factor (GR15/GR85) (Quackgrass [2]; Sarpy silty clay, Table XVII B): 2
- selectivity factor (GR15/GR85) (Quackgrass [2]; [5]): 1.5

Structure (SMILES): CCCOCN(C(=O)CCl)c1c(CC)cccc1C(F)(F)F [Example 10, N--(n-propoxymethyl)-2'-trifluoromethyl-6'-ethyl-2-chloroacetanilide]
- GR85 Rate (purple nutsedge): 0.18 Kg/Ha
- selectivity factor (GR15/GR85) (purple nutsedge): > 6.2
- GR85 Rate (wild proso millet; Table XVI): 0.80 Kg/Ha
- selectivity factor (GR15/GR85) (wild proso millet; in lima beans, Table XVI): > 1.4
- selectivity factor (GR15/GR85) (wild proso millet; in peanuts, Table XVI): 1.2
- GR85 (Quackgrass [1]; Table XIII): 0.45 Kg/Ha
- selectivity against quackgrass in wheat (Quackgrass [1]; in wheat): non-selective
- selectivity factor (GR15/GR85) (Quackgrass [1]; quackgrass in corn, Table XIII): 5.6
- selectivity factor (GR15/GR85) (Quackgrass [1]; quackgrass in soybeans, Table XIII): 3.3
- GR85 (Yellow Nutsedge; Table XII): 0.38 Kg/Ha
- selectivity with respect to yellow nutsedge in rice (Yellow Nutsedge; in rice): non-selective
- selectivity factor (GR15/GR85) (Yellow Nutsedge; yellow nutsedge in corn, Table XII): 4.5
- selectivity factor (GR15/GR85) (Yellow Nutsedge; yellow nutsedge in cotton, Table XII): 7.4
- selectivity factor (GR15/GR85) (Yellow Nutsedge; yellow nutsedge in soybeans, Table XII): 5.8
- GR15 Rate (rape; Table XV): > 1.12 Kg/Ha
- GR85 Rate (red rice; Table XVI): 0.98 Kg/Ha
- selectivity factor (GR15/GR85) (red rice; in lima beans, Table XVI): > 1.1
- selectivity factor (GR15/GR85) (red rice; in peanuts, Table XVI): 1
- GR15 (corn; Table XII): 1.7 Kg/Ha
- GR15 (corn; Table XIII): 2.5 Kg/Ha
